Key:
[1] = Plasma stability, mouse; assay type: in vitro ADME
[2] = Plasma stability, human; assay type: in vitro ADME
[3] = Stability in solution and photo-stability; assay type: physicochemical; details: for photo-stability: exposed to normal fluorescent light, aryl iodide
[4] = test system: MDA-MB-468 cells; assay: Cell viability assay; assay type: cell-based; details: Cell Titer Glo
[5] = target: Sigma1 (Homo sapiens, UniProt Q99720); assay: In vitro radio-ligand binding assay using membranes from MDA-MB-468 cancer cells; details: for fold decrease in binding affinity compared to IPAG: relative to IPAG
Sequence of Sigma1 (Q99720 whole entry): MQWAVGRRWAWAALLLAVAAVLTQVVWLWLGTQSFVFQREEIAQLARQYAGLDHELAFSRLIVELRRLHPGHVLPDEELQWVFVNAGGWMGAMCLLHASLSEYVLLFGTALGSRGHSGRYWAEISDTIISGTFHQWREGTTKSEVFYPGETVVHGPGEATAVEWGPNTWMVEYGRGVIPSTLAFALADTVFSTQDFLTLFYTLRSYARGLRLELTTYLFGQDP

[6] = Mouse pharmacokinetics, IV and oral, plasma levels; assay type: in vivo, Male Swiss Mice; details: for V / AUC / clearance: 2 mg/kg IV; for AUC / clearance: male, Swiss, mouse, plasma, iv, 2 mg/kg; for AUC: AUC0−¥; for clearance: CL
[7] = Mouse pharmacokinetic exposure, IP, plasma and brain; details: male, Swiss, brain, 10 mg/kg
[8] = target: T1, androgen receptor (AR) (Homo sapiens, UniProt P10275); assay: Androgen reporter assay; assay type: cell-based
T1 sequence (P10275 1-920): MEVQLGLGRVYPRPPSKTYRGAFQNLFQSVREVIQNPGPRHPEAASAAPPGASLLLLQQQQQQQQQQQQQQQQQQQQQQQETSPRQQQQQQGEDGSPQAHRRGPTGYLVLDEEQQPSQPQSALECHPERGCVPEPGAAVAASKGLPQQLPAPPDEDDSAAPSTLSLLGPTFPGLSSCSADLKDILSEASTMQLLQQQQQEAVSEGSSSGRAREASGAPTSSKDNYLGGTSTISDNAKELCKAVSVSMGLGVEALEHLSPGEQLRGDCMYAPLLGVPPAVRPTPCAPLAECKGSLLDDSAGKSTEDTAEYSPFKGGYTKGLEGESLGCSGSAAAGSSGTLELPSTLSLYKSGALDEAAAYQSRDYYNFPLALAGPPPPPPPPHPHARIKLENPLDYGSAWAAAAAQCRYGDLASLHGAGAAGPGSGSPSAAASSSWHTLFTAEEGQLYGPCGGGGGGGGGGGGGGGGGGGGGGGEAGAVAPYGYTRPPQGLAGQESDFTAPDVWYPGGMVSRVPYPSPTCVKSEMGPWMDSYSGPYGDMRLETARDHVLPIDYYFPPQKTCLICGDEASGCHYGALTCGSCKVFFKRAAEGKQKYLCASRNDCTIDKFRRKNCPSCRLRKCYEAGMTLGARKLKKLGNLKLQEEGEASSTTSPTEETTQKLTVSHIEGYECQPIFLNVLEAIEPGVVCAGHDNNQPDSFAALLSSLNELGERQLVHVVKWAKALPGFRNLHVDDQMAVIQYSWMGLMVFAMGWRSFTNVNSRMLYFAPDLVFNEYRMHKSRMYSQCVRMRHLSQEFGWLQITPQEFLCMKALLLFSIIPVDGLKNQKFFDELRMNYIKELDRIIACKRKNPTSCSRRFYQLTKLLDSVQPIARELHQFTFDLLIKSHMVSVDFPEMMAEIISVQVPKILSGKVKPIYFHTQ

SMILES	Plasma Stability Mouse [1]	Plasma Stability Human [2]	photo-stability [3]	fold decrease in binding affinity compared to IPAG [5]	acute cytotoxicity [4]	antiproliferative activity, potency [4]	also measured
N=C(NCCCOc1ccc(F)cc1)Nc1ccc(I)cc1 [compound 1]	>6 h	>6 h	photo-stability issue similar to IPAG	5–10 fold	not acutely cytotoxic	3 to 20 µM	
N=C(Nc1ccc(I)cc1)Nc1ccc(I)cc1 [compound 2]			photo-stability issue similar to IPAG				Sigma1 binding affinity (in words) [5]: binding affinity similar to IPAG
NC(=NC12CC3CC(CC(C3)C1)C2)Nc1ccc(I)cc1 [IPAG, (1-adamantan-1-yl)-3-(4-iodophenyl)guanidine, reference compound]			particularly unstable when exposed to normal fluorescent light			3 to 20 µM	stability in solution ([3]; in solution): unstable when in solution
C[C@]12CC[C@H](O)CC1=CC[C@@H]1[C@@H]2CC[C@]2(C)C(c3cccnc3)=CC[C@@H]12 [abiraterone]							EC50 [8]: 17.1 µM
N=C(NCCCOc1ccc(F)cc1)NCCCOc1ccc(F)cc1 [compound 3]							Sigma1 binding affinity (in words) [5]: no affinity

More lines, main results first:

Plasma Stability Mouse [1]	Plasma Stability Human [2]	photo-stability [3]	fold decrease in binding affinity compared to IPAG [5]	SMILES	acute cytotoxicity [4]	antiproliferative activity, potency [4]	also measured
>6 h	>6 h		5–10 fold	COc1ccc(NC(=N)NCCCOc2ccc(F)cc2)cc1 [compound 5]	not acutely cytotoxic	3 to 20 µM	
			5–10 fold	N=C(NCCCOc1ccc(F)cc1)Nc1ccc(C(F)(F)F)cc1 [compound 6]			
>6 h	>6 h			N=C(NCCCOc1ccc(F)cc1)Nc1ccc(Cl)cc1 [compound 4, 1-(4-chlorophenyl)-3-(3-(4-fluorophenoxy)propyl)guanidine]	not acutely cytotoxic	3 to 20 µM	V ([6]; Data set 1): 91.0 L/kg; V ([6]; Data set 2): 57.6 L/kg; AUC ([6]; Data set 1): 57 ng·h/mL; AUC ([6]; Data set 2): 71 ng·h/mL; clearance ([6]; Data set 1): 586 mL/min/kg; clearance ([6]; Data set 2): 469 mL/min/kg; dose escalation of exposure, oral 10 mg/kg to 30 mg/kg ([6]; oral route, 10 mg/kg to 30 mg/kg): < 3 fold; Cmax [7]: 691 ng/g

Source: PMC5714280 (Bioorganic & medicinal chemistry letters, 2017)
